In ChEMBL document CHEMBL1150881, “Glacins A and B: two novel bioactive mono-tetrahydrofuran acetogenins from Annona glabra” (J Nat Prod, 1998):
≈ marks a conversion by molar mass, not a printed value.

Assays:
[1] = Toxicity in Artemia salina; format: organism-based; settings: in vivo
A549 = test: Cytotoxicity against human A549 cells after 7 days by MTT assay; format: functional; settings: A549, 168 h, read-out: ED50 (the source's name)
MCF7 = test: Cytotoxicity against human MCF7 cells after 7 days by MTT assay; format: functional; settings: MCF7, 168 h, read-out: ED50 (the source's name)
HT-29 = test: Cytotoxicity against human HT-29 cells after 7 days by MTT assay; format: functional; settings: HT-29, 168 h, read-out: ED50 (the source's name)
A498 = test: Cytotoxicity against human A498 cells after 7 days by MTT assay; format: functional; settings: A498, 168 h, read-out: ED50 (the source's name)
PC-3 = test: Cytotoxicity against human PC3 cells after 7 days by MTT assay; format: functional; settings: PC-3, 168 h, read-out: ED50 (the source's name)
MIA PaCa-2 = test: Cytotoxicity against human MIAPaCa2 cells after 7 days by MTT assay; format: functional; settings: MIA PaCa-2, 168 h, read-out: ED50 (the source's name)

Structure (SMILES)	LC50 [1] [µg/mL]	EC50 (A549) [µg/mL]	EC50 (MCF7) [µg/mL]	EC50 (HT-29) [µg/mL]	EC50 (A498) [µg/mL]	EC50 (PC-3) [µg/mL]	EC50 (MIA PaCa-2) [µg/mL]
CCCCCCCCCC[C@H](O)[C@@H](O)CCCC[C@H]1CC[C@H]([C@H]2CC[C@H]([C@H](O)CCCCC[C@@H](O)CC3=C[C@H](C)OC3=O)O2)O1 [GLACIN B]	0.27 (≈ 0.423 µM)	1.29 (≈ 2.02 µM)	0.052 (≈ 0.0814 µM)	0.0868 (≈ 0.136 µM)	2.61 (≈ 4.08 µM)	0.0559 (≈ 0.0875 µM)	0.0274 (≈ 0.0429 µM)
COc1cccc2c1C(=O)c1c(O)c3c(c(O)c1C2=O)C[C@@](O)(C(=O)CO)C[C@@H]3O[C@H]1C[C@H](N)[C@H](O)[C@H](C)O1 [DOXORUBICIN]	–	0.0191 (≈ 0.0351 µM)	0.179 (≈ 0.329 µM)	0.0278 (≈ 0.0511 µM)	0.0062 (≈ 0.0114 µM)	0.046 (≈ 0.0846 µM)	0.0153 (≈ 0.0281 µM)
CCCCCCCCCC[C@@H](O)[C@H]1CC[C@H]([C@H](O)CCCC[C@H](O)CCCCCCC[C@@H](O)CC2=C[C@H](C)OC2=O)O1 [GLACIN A]	0.11 (≈ 0.184 µM)	1.53 (≈ 2.56 µM)	0.00442 (≈ 0.00741 µM)	2.3 (≈ 3.85 µM)	1.25 (≈ 2.09 µM)	0.00981 (≈ 0.0164 µM)	0.00857 (≈ 0.0144 µM)
